# Earlier results in patent US10976310B2, “Ligand identification by co-fractionation” (MAX-PLANCK-GESELLSCHAFT ZUR FÖRDERUNG DER WISSENSCHAFTEN …, priority 2016, dated 2021).
# Molecular target: T1, PYR1 receptor (Arabidopsis thaliana, UniProt O49686)
# T1 sequence (O49686 1-191): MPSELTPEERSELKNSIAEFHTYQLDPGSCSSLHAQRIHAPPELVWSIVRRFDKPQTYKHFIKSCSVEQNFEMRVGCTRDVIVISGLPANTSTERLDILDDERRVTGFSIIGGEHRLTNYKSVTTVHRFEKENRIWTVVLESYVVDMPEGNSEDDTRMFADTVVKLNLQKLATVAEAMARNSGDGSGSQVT
# Conditions: Dupeux et al. (2011); read-out: Kd of binding to PYR1; cited from earlier work
compound,measurement,value
CC1=CC(=O)CC(C)(C)[C@@]1(O)/C=C/C(C)=C\C(=O)O [abscisic acid],Kd,97 µM
